{"source": "patent US20220151236A1", "about": "“NOVEL OXADIAZOLE COMPOUNDS FOR CONTROLLING OR PREVENTING PHYTOPATHOGENIC FUNGI” (PI INDUSTRIES LTD., priority 2019, published 2022)"}
{"tested_on": "Phakopsora pachyrhizi", "assay": "Phakopsora pachyrhizi Test on Soybean (preventive activity, greenhouse)", "type": "in vivo", "conditions": "preventive spray on young Soybean plants, inoculated one day after treatment, rated 3, 7, 10 and 15 days after application, read-out: Efficacy (% control), disease severity compared to the untreated check", "method": "Compounds were dissolved in 2% dimethyl sulfoxide/acetone and then mixed with water containing an emulsifier to a calibrated spray volume of 50 mL. This 50 mL spray solution was poured into spray bottles for further applications. To test the preventive activity of compounds, healthy young Soybean plants raised in the greenhouse were sprayed with the active compound preparation at the stated application rates inside the spray cabinets using hollow cone nozzles. One day after treatment, the plants were inoculated with a spore suspension containing 2×10^5 Phakopsora pachyrhizi conidia. The inoculated plants were then kept in a greenhouse chamber at 22-24° C. temperature and 80-90% relative humidity for disease expression. A visual assessment of the compound's performance was carried out by rating the disease severity (0-100% scale) on treated plants 3, 7, 10 and 15 days after application. Efficacy (% control) of the compounds was calculated by comparing the disease rating in the treatment with the one of the untreated control. The sprayed plants were also assessed for plant compatibility by recording symptoms like necrosis, chlorosis and stunting.", "units": {"pest or weed control at 500 ppm": "%"}}
{"smiles": "O=C(NCc1cccc(Cl)c1)c1cn2cc(-c3noc(C(F)(F)F)n3)ccc2n1", "note": "[Compound 75, N-(3-chlorobenzyl)-6-(5-(trifluoromethyl)-1,2,4-oxadiazol-3-yl)imidazo[1,2-a]pyridine-2-carboxamide]", "pest or weed control at 500 ppm": "≥ 70"}
{"smiles": "O=C(NCc1cccc(Cl)c1)c1cn2ccc(-c3noc(C(F)(F)F)n3)cc2n1", "note": "[Compound 40, N-(3-chlorobenzyl)-7-(5-(trifluoromethyl)-1,2,4-oxadiazol-3-yl)imidazo[1,2-a]pyridine-2-carboxamide]", "pest or weed control at 500 ppm": "≥ 70"}
{"smiles": "O=S(=O)(Cc1cn2ccc(-c3noc(C(F)(F)F)n3)cc2n1)c1ccc(F)cc1", "note": "[Compound 57, 3-(2-(((4-fluorophenyl)sulfonyl)methyl)imidazo[1,2-a]pyridin-7-yl)-5-(trifluoromethyl)-1,2,4-oxadiazole]", "pest or weed control at 500 ppm": "≥ 70"}
{"smiles": "O=C(Nc1ccc(Cl)cc1)c1cn2ccc(-c3noc(C(F)(F)F)n3)cc2n1", "note": "[Compound 6, N-(4-chlorophenyl)-7-(5-(trifluoromethyl)-1,2,4-oxadiazol-3-yl)imidazo[1,2-a]pyridine-2-carboxamide]", "pest or weed control at 500 ppm": "≥ 70"}
{"smiles": "O=C(NCc1cccc(F)c1)c1cn2cc(-c3noc(C(F)(F)F)n3)ccc2n1", "note": "[Compound 31, N-(3-fluorobenzyl)-6-(5-(trifluoromethyl)-1,2,4-oxadiazol-3-yl)imidazo[1,2-a]pyridine-2-carboxamide]", "pest or weed control at 500 ppm": "≥ 70"}
{"smiles": "COc1cccc(NC(=O)c2cn3ccc(-c4noc(C(F)(F)F)n4)cc3n2)c1", "note": "[Compound 1, N-(3-methoxyphenyl)-7-(5-(trifluoromethyl)-1,2,4-oxadiazol-3-yl)imidazo[1,2-a]pyridine-2-carboxamide]", "pest or weed control at 500 ppm": "≥ 70"}
{"smiles": "O=C(Nc1ccc(F)cc1F)c1cn2cc(-c3noc(C(F)(F)F)n3)ccc2n1", "note": "[Compound 17, N-(2,4-difluorophenyl)-6-(5-(trifluoromethyl)-1,2,4-oxadiazol-3-yl)imidazo[1,2-a]pyridine-2-carboxamide]", "pest or weed control at 500 ppm": "≥ 70"}
{"smiles": "COc1ccc(CS(=O)(=O)Cc2cn3cc(-c4noc(C(F)(F)F)n4)ccc3n2)cc1", "note": "[Compound 122, 3-(2-(((4-methoxybenzyl)sulfonyl)methyl)imidazo[1,2-a]pyridin-6-yl)-5-(trifluoromethyl)-1,2,4-oxadiazole]", "pest or weed control at 500 ppm": "≥ 70"}
{"smiles": "CCCSCc1cn2cc(-c3noc(C(F)(F)F)n3)ccc2n1", "note": "[Compound 107, 3-(2-((propylthio)methyl)imidazo[1,2-a]pyridin-6-yl)-5-(trifluoromethyl)-1,2,4-oxadiazole]", "pest or weed control at 500 ppm": "≥ 70"}
{"smiles": "CS(=O)(=NC(=O)Cc1cn2cc(-c3noc(C(F)(F)F)n3)ccc2n1)c1ccccc1F", "note": "(stereo not shown) [Compound 130, N-((2-fluorophenyl)(methyl)(oxo)-λ^6-sulfaneylidene)-2-(6-(5-(trifluoromethyl)-1,2,4-oxadiazol-3-yl)imidazo[1,2-a]pyridin-2-yl)acetamide]", "pest or weed control at 500 ppm": "≥ 70"}
{"smiles": "O=C(NCc1cn2cc(-c3noc(C(F)(F)F)n3)ccc2n1)c1cccc(F)c1", "note": "[Compound 93, 3-fluoro-N-((6-(5-(trifluoromethyl)-1,2,4-oxadiazol-3-yl)imidazo[1,2-a]pyridin-2-yl)methyl)benzamide]", "pest or weed control at 500 ppm": "≥ 70"}
{"smiles": "O=C(Nc1cccc(F)c1)c1cn2cc(-c3noc(C(F)(F)F)n3)ccc2n1", "note": "[Compound 24, N-(3-fluorophenyl)-6-(5-(trifluoromethyl)-1,2,4-oxadiazol-3-yl)imidazo[1,2-a]pyridine-2-carboxamide]", "pest or weed control at 500 ppm": "≥ 70"}
{"smiles": "COc1ccc(S(=N)(=O)Cc2cn3ccc(-c4noc(C(F)(F)F)n4)cc3n2)cc1", "note": "(stereo not shown) [Compound 165, imino(4-methoxyphenyl)((7-(5-(trifluoromethyl)-1,2,4-oxadiazol-3-yl)imidazo[1,2-a]pyridin-2-yl)methyl)-λ^6-sulfanone]", "pest or weed control at 500 ppm": "≥ 70"}
{"smiles": "CC(NC(=O)c1cn2cc(-c3noc(C(F)(F)F)n3)ccc2n1)c1ccccc1", "note": "(stereo not shown) [Compound 72, N-(1-phenylethyl)-6-(5-(trifluoromethyl)-1,2,4-oxadiazol-3-yl)imidazo[1,2-a]pyridine-2-carboxamide]", "pest or weed control at 500 ppm": "≥ 70"}
{"smiles": "CS(=O)(=NC(=O)Cc1cn2cc(-c3noc(C(F)(F)F)n3)ccc2n1)c1ccccc1", "note": "(stereo not shown) [Compound 129, N-(methyl(oxo)(phenyl)-λ^6-sulfanylidene)-2-(6-(5-(trifluoromethyl)-1,2,4-oxadiazol-3-yl)imidazo[1,2-a]pyridin-2-yl)acetamide]", "pest or weed control at 500 ppm": "≥ 70"}
{"smiles": "O=C(Nc1ccncc1)c1cn2cc(-c3noc(C(F)(F)F)n3)ccc2n1", "note": "[Compound 32, N-(pyridin-4-yl)-6-(5-(trifluoromethyl)-1,2,4-oxadiazol-3-yl)imidazo[1,2-a]pyridine-2-carboxamide]", "pest or weed control at 500 ppm": "≥ 70"}
{"smiles": "N#Cc1ccc(NC(=O)c2cn3cc(-c4noc(C(F)(F)F)n4)ccc3n2)cc1", "note": "[Compound 27, N-(4-cyanophenyl)-6-(5-(trifluoromethyl)-1,2,4-oxadiazol-3-yl)imidazo[1,2-a]pyridine-2-carboxamide]", "pest or weed control at 500 ppm": "≥ 70"}
{"smiles": "O=C(NCc1ccccc1)c1cn2ccc(-c3noc(C(F)(F)F)n3)cc2n1", "note": "[Compound 10, N-benzyl-7-(5-(trifluoromethyl)-1,2,4-oxadiazol-3-yl)imidazo[1,2-a]pyridine-2-carboxamide]", "pest or weed control at 500 ppm": "≥ 70"}
{"smiles": "COc1ccc(C(=O)NCc2cn3cc(-c4noc(C(F)(F)F)n4)ccc3n2)cc1", "note": "[Compound 82, 4-methoxy-N-((6-(5-(trifluoromethyl)-1,2,4-oxadiazol-3-yl)imidazo[1,2-a]pyridin-2-yl)methyl)benzamide]", "pest or weed control at 500 ppm": "≥ 70"}
{"smiles": "O=C(Nc1c(F)cccc1F)c1cn2cc(-c3noc(C(F)(F)F)n3)ccc2n1", "note": "[Compound 30, N-(2,6-difluorophenyl)-6-(5-(trifluoromethyl)-1,2,4-oxadiazol-3-yl)imidazo[1,2-a]pyridine-2-carboxamide]", "pest or weed control at 500 ppm": "≥ 70"}
{"smiles": "O=C(Nc1cccnc1)c1cn2cc(-c3noc(C(F)(F)F)n3)ccc2n1", "note": "[Compound 29, N-(pyridin-3-yl)-6-(5-(trifluoromethyl)-1,2,4-oxadiazol-3-yl)imidazo[1,2-a]pyridine-2-carboxamide]", "pest or weed control at 500 ppm": "≥ 70"}
{"smiles": "CN(CCOc1ccccc1)C(=O)c1cn2ccc(-c3noc(C(F)(F)F)n3)cc2n1", "note": "[Compound 14, N-methyl-N-(2-phenoxyethyl)-7-(5-(trifluoromethyl)-1,2,4-oxadiazol-3-yl)imidazo[1,2-a]pyridine-2-carboxamide]", "pest or weed control at 500 ppm": "≥ 70"}
{"smiles": "COc1ccccc1NC(=O)c1cn2cc(-c3noc(C(F)(F)F)n3)ccc2n1", "note": "[Compound 28, N-(2-methoxyphenyl)-6-(5-(trifluoromethyl)-1,2,4-oxadiazol-3-yl)imidazo[1,2-a]pyridine-2-carboxamide]", "pest or weed control at 500 ppm": "≥ 70"}
{"smiles": "CC(C)(C)CNC(=O)c1cn2ccc(-c3noc(C(F)(F)F)n3)cc2n1", "note": "[Compound 36, N-neopentyl-7-(5-(trifluoromethyl)-1,2,4-oxadiazol-3-yl)imidazo[1,2-a]pyridine-2-carboxamide]", "pest or weed control at 500 ppm": "≥ 70"}
{"smiles": "N=S(=O)(Cc1cn2ccc(-c3noc(C(F)(F)F)n3)cc2n1)c1ccccc1", "note": "(stereo not shown) [Compound 164, imino(phenyl)((7-(5-(trifluoromethyl)-1,2,4-oxadiazol-3-yl)imidazo[1,2-a]pyridin-2-yl)methyl)-λ^6-sulfanone]", "pest or weed control at 500 ppm": "≥ 70"}
